Test results from patent publication US20110028717A1, “AZAINDOLE DERIVATIVE HAVING PGD2 RECEPTOR ANTAGONISTIC ACTIVITY” (priority 2005, published 2011).

Experiments:
DP receptor [1] = target: T1, DP receptor (Homo sapiens, UniProt Q13258); assay: Receptor binding assay, [3H]-PGD2, platelet membrane; settings: [3H]-PGD2, human platelet membrane
T1 construct: endogenous in cells; host or cells: washed platelets from peripheral blood of a healthy volunteer
T1 sequence (Q13258 1-359): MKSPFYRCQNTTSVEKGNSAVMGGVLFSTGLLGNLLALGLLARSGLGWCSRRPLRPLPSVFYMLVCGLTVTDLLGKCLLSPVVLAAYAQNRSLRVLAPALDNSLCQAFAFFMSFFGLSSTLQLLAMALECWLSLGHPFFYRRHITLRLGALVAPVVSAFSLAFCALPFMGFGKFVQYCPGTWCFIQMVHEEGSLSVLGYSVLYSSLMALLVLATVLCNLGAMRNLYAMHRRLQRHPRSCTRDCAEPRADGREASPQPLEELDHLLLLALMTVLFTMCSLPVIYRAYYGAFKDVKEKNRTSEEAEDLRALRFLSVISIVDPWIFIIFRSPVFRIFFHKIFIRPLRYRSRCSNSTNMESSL
Description: A prepared WP was homogenated and a membrane fraction was collected with high-speed centrifugation. A compound of the present invention or a reference compound A (No. IC-73 in WO 2003/097598) was added to the plate and [^3H]-PGD2 was also added. A platelet membrane, a protein concentration is 2 mg/mL, was added and mixed in the plate, and placed on ice for 2 hours. The reaction solution was transferred to a low protein-adsorptive filter and washed with a wash solution eight times using a cell harvester. After the final washing, water was removed sufficiently, and micoscinti was added. DP inhibitory activity was investigated by measuring [^3H] by using Micro Beta.

Brown Norway (BN) Rats = assay: OVA asthma model of rat (hyperresponsive airway, infiltration of inflammatory cells, mucus secretion); format: in vivo; settings: 10 mg/kg p.o. once a day for three days; for inhibition rate (%) mucus-secretion: mucin in airway lavage fluid vs control group; for inhibition rate (%) infiltration of inflammatory cells: total cell number in bronchoalveolar washings vs control group; for inhibition rate (%) increased hyperresponsive airway: vs control group, AUC of acetylcholine response
Description: Brown Norway (BN) Rats were sensitized by i.p. administration of 0.1 mg/mL of ovalbumin (OVA) and 1 mg of aluminum hydroxide gel. A solution of 1% OVA was aerosolized by ultrasonic nebulizer (NE-U 17) and the rats were subjected to inhalation exposure of the aerosol for 30 minutes in an exposing chamber 12, 19, 26 and 33 days after the sensitization. One hour before the 4th exposure of the antigen, compounds of the present invention were administered in a dose of 10 mg/kg p.o. once a day for three days consecutively. In a control group, 0.5% of methyl cellulose was administered in place of the compound of the present invention.
Under pentobarbital anesthesia (80 mg/kg, i.p.), acetylcholine (3.9, 7.8, 15.6, 31.3, 62.5, 125, 250 and 500 μg/kg) was injected to jugular vein of the rats successively from a lower dose at intervals of 5 minutes three days after the fourth exposure to the antigen, and immediate contractile reaction of airways (an increase of insufflation pressure) was measured by a modified method of Konnzett & Rössler. Inhibition rate of increased hyperresponsive airway against the control group was calculated based on area under curve (AUC) obtained from concentration-response curve of acetylcholine.
After the measurement of increased hyperresponsive airway was completed, bronchoalveoli of the rats were washed with 5 mL of saline three times. Total cell number in the washings was counted by a hemacytometer under light microscope, and inhibition rates of infiltration of inflammatory cells against the control group were calculated. Further, muchin in the airway lavage fluid was measured by ELIZA method using jacalin, a muchin-binding lectin, and the inhibition rates of mucus-secretion against the control group were calculated.

DP receptor [2] = target: T1, DP receptor; assay: cAMP assay with washed platelets (PGD2-stimulated cAMP, HTRF); format: cell-based; settings: 100 nM PGD2, cAMP by HTRF, read-out: IC50 (50% DP-inhibitory concentration in the cAMP assay)
Description: 30 ml of peripheral blood was collected from a healthy volunteer using a syringe containing one ninth amount of 3.8% sodium citrate for diagnosis. After being centrifuged at 180 g for 10 minutes at room temperature, a supernatant was collected and used as Platelet Rich Plasma (PRP). The resulting PRP was washed with wash buffer and centrifuged three times (Washed Platelet: WP) and platelets were counted by a microcell counter. WP was added to a plate in amount of 1.5×10^8/assay and the plate was treated with 3-isobutyl-1-methylxanthin (IBMX; 0.5 mM) for 5 minutes. A reaction was initiated by adding 100 nM of PGD2 5 min after an addition of a test compound. The reaction was terminated with an addition of 1N hydrochloric acid after 2 minutes and the cells were destructed using 12% triton X-100. An amount of cAMP in the supernatant was assayed by Homogeneous […] (HTRF)

Question: With CC(C)Oc1ccc(S(=O)(=O)N2CCC(c3cn(CC(=O)O)c4ncccc34)CC2)cc1 [Compound I-1] as the compound, how does the Ki (DP receptor [1]) read?
Answer: The Ki was 1 nM.

Question: What about the “inhibition rate (%) mucus-secretion” value (Brown Norway (BN) Rats) of the same compound?
Answer: The value was 68%.

Question: And the “inhibition rate (%) infiltration of inflammatory cells” value (shortened to “inhibition rate (%) infiltration”) (Brown Norway (BN) Rats)?
Answer: The value was 63%.

Question: What about the “inhibition rate (%) increased hyperresponsive airway” value (Brown Norway (BN) Rats) of the same compound?
Answer: The value was 55%.

Question: And the IC50 (DP receptor [2])?
Answer: The IC50 was 0.58 nM.

Question: What does the source list for CC[C@@H](C)Oc1ccc(S(=O)(=O)N2CCC(c3cn(CC(=O)O)c4ncccc34)CC2)cc1 [Compound I-6]?
Answer: Ki (DP receptor [1]): 1 nM; inhibition rate (%) mucus-secretion (Brown Norway (BN) Rats): 77%; inhibition rate (%) infiltration of inflammatory cells (Brown Norway (BN) Rats): 60%; inhibition rate (%) increased hyperresponsive airway (Brown Norway (BN) Rats): 69%; IC50 (DP receptor [2]): 0.93 nM

Question: Which Ki (DP receptor [1]) does the source give for CC(C)Oc1ccc(S(=O)(=O)N2CCC(c3cn(CC(=O)O)c4nc(Br)ccc34)CC2)cc1 [Compound I-13] here?
Answer: Its Ki is 0.85 nM.

Question: What about the “inhibition rate (%) mucus-secretion” value (Brown Norway (BN) Rats) of the same compound?
Answer: The value was 44%.

Question: And the “inhibition rate (%) infiltration” value (Brown Norway (BN) Rats)?
Answer: The value was 62%.

Question: And the “inhibition rate (%) increased hyperresponsive airway” value (Brown Norway (BN) Rats)?
Answer: The value was 58%.

Question: And the IC50 (DP receptor [2])?
Answer: Its IC50 is 0.51 nM.

Question: How did the Ki (DP receptor [1]) turn out when COc1ccc2c(C3CCN(S(=O)(=O)c4ccc(OC(C)C)cc4)CC3)cn(CC(=O)O)c2n1 [Compound I-14] was run?
Answer: Its Ki is 0.61 nM.

Question: What about the “inhibition rate (%) mucus-secretion” value (Brown Norway (BN) Rats) of the same compound?
Answer: The value was 88%.

Question: And the “inhibition rate (%) infiltration” value (Brown Norway (BN) Rats)?
Answer: Its value is 68%.

Question: And the “inhibition rate (%) increased hyperresponsive airway” value (Brown Norway (BN) Rats)?
Answer: The value was 84%.

Question: What about the IC50 (DP receptor [2]) of the same compound?
Answer: The IC50 was 0.33 nM.

Question: CC(C)Oc1ccc(S(=O)(=O)N2CCC(c3cn(CC(=O)O)c4nc(-c5ccccc5)ccc34)CC2)cc1 [Compound I-16] was tested. Which IC50 (DP receptor [2]) did it give?
Answer: Its IC50 is 0.64 nM.

Question: How did the Ki (DP receptor [1]) turn out when CC(C)Oc1ccc(S(=O)(=O)N2CCC(c3cn(CC(=O)O)c4nc(-c5ccc(F)cc5)ccc34)CC2)cc1 [Compound I-17] was run?
Answer: The Ki was 0.25 nM.

Question: And the IC50 (DP receptor [2])?
Answer: The IC50 was 0.88 nM.

Question: How did the IC50 (DP receptor [2]) turn out when CC(C)Oc1ccc(S(=O)(=O)N2CCC(c3cn(CC(=O)O)c4nc(-c5ccccn5)ccc34)CC2)cc1 [Compound I-19] was run?
Answer: Its IC50 is 2.2 nM.

Question: CC(C)Oc1ccc(S(=O)(=O)N2CCC(c3cn(CC(=O)O)c4nc(-c5nccs5)ccc34)CC2)cc1 [Compound I-20] was tested. Which Ki (DP receptor [1]) did it give?
Answer: Its Ki is 0.48 nM.

Question: What about the IC50 (DP receptor [2]) of the same compound?
Answer: Its IC50 is 0.64 nM.

Question: Which results are given for CC(C)Oc1ccc(S(=O)(=O)N2CCC(c3cn(CC(=O)O)c4nc(NC(=O)OC(C)(C)C)ccc34)CC2)cc1 [Compound I-21]?
Answer: Ki (DP receptor [1]): 0.51 nM; IC50 (DP receptor [2]): 1.9 nM

Question: With CC(C)Oc1ccc(S(=O)(=O)N2CCC(c3cn(CC(=O)O)c4nc(-c5ccoc5)ccc34)CC2)cc1 [Compound I-25] as the compound, how does the IC50 (DP receptor [2]) read?
Answer: The IC50 was 1.1 nM.

Question: For CC(C)Oc1ccc(S(=O)(=O)N2CCC(c3cn(CC(=O)O)c4nc(-c5ccco5)ccc34)CC2)cc1 [Compound I-26], which IC50 (DP receptor [2]) is on record?
Answer: The IC50 was 1.7 nM.

Question: CCOc1ccc2c(C3CCN(S(=O)(=O)c4ccc(OC(C)C)cc4)CC3)cn(CC(=O)O)c2n1 [Compound I-29] was tested. Which IC50 (DP receptor [2]) did it give?
Answer: The IC50 was 1.5 nM.

Question: CC(C)Oc1ccc(S(=O)(=O)N2CCC(c3cn(CC(=O)O)c4nc(OCc5ccccc5)ccc34)CC2)cc1 [Compound I-31] was tested. Which IC50 (DP receptor [2]) did it give?
Answer: Its IC50 is 1.7 nM.
